Drawing on US20200087258A1, “INHIBITOR OF CITRATE TRANSPORTER AND THEIR USE IN THERAPY” (Eternygen GmbH, priority 2017, published 2020), this text covers IC50 for one molecule.

The IC50 is the midpoint of a concentration-inhibition curve.

The assay has as its target T1, GLUT1 (Homo sapiens, UniProt P11166).
T1 construct: Huh-7 cells which endogenously express GLUT1; endogenous in cells; host or cells: Huh-7
T1 sequence (P11166 1-492): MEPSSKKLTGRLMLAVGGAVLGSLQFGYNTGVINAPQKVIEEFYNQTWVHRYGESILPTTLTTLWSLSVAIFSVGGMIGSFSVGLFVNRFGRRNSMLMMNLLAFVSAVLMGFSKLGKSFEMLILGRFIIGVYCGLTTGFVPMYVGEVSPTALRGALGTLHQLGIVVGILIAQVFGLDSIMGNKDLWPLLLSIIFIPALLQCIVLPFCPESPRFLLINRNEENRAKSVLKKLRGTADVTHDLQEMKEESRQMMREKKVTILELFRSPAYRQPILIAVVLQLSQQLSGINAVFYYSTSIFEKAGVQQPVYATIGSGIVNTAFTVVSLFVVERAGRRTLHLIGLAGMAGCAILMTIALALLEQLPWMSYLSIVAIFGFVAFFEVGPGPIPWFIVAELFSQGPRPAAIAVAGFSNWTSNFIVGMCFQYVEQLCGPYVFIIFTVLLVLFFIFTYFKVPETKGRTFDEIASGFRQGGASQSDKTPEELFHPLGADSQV
Description: 3H-glucose uptake counter assay in Huh7 cells endogenously expressing GLUT1. The assay is classed as cell-based. The following applies: endogenous GLUT1. The method, then: The compound was obtained by screening of a library containing more than 50,000 lead-like compounds and fragments. The library was tested using a functional citrate uptake assay with HEK293 cells overexpressing recombinant human INDY. The following hit confirmation was conducted in the same assay system. To confirm the activity of selected compounds on the target INDY another cell assay was conducted. In this assay system citrate uptake was measured using HepG2 cells which endogenously express INDY. Furthermore selectivity of selected compounds was tested for two other transporters in different assay systems. The first transporter was the glutamate transporter GLT-1 tested in a glutamate uptake assays using HEK293 cells overexpressing recombinant human GLT-1. The second transporter was the glucose transporter GLUT1 tested in a glucose uptake assay using Huh-7 cells which endogenously express GLUT1. Compounds were considered to be selective with an at least 5-fold higher activity for INDY than for the other two transporters.
Cells were maintained in cell medium using cell culture grade flasks (CellSTACK Corning, 500 cm2 dishes or T175 depending on cell number). The selection antibiotic and G418 (800 μg/ml) was added during cultivation but not for seeding into assay plates. For splitting, cells were washed with PBS (w/o Ca2+, Mg2+, phenol red) and detached with Trypsin/EDTA. Throughout cultivation cells were kept sub-confluent. Detached cells (50,000 cells/well) were seeded in 96-well plates (white, clear bottom from Corning #655098) and incubated over night before usage in the assay. The following media were used. For HEK293 cells expressing INDY MEM (PAA)+10% FCS+1×P/S+2 mM L-Gln; for HEK293 cells expressing GLT-1 DMEM (Gibco)+10% FCS+400 µg/ml G418; for Huh7 cells DMEM (Gibco)+10% FCS+2 mM L-Gin (+1×P/S); for HepG2 cells MEM (PAA, Cat # E15-024)+10% FCS+2 mM L-Gin+1×NEAA+1 mM Na-Pyruvat […]
Glucose uptake in Huh7 cells was measured as a counter assay. […] After 20 min incubation at RT plates were measured using TopCount system, Perkin Elmer. […]

A value given as a limit tells only on which side of the number the result lay.

`O=C(NCc1ccccc1F)C1CCN(S(=O)(=O)/C=C/c2ccccc2)CC1` [Example 5]: the IC50 is more than 50 µM.
